Some results are limits rather than exact numbers.

This data set is described as follows: solubility of spacer moiety measured as dialcohol precursor. The class given is physicochemical. As to conditions: dodecyl spacer measured as dialcohol precursor; water solubility. As to the method: In addition, a spacer moiety that has low solubility, such as a dodecyl spacer (solubility <5 mg/ml when measured as dialcohol precursor 1,12-dihydroxydodecane) is not preferred because it can reduce the hydrophilicity and activity of the BIC. Preferably, spacer moieties have solubility much greater than 5 mg/ml (e.g., solubility at least about 20 mg/ml, at least about 50 mg/ml or at least about 100 mg/ml), e.g., when measured as dialcohol precursors. The form of the spacer moiety used for testing its water solubility is generally its most closely related unactivated and unprotected spacer precursor molecule.

Take `OCCCCCCCCCCCCO` [1,12-dihydroxydodecane]: the solubility (usually how much of the substance goes into solution per volume) is under 5000 µg/mL.

The values are drawn from patent publication US7625872B2, “Branched immunomodulatory compounds and methods of using the same” (Dynavax Technologies Corporation, priority 2002, dated 2009).
